In patent publication US20060069132A1, “Azolecarboxamide herbicides” (priority 2004, published 2006):

How the values were obtained:
[1] = system: giant foxtail; experiment: Test A pre-/postemergence herbicide test; type: in vivo, Setaria faberi
Outline: (§1)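 Both application timings were run together: directed soil spray over freshly planted seeds in sandy loam, and runoff spray onto 2–10 cm seedlings. Evaluation after ~10 days in greenhouse used a 0–100 visual scale versus untreated controls.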

[2] = system: wheat; experiment: Test B postemergence herbicide test; type: in vivo, Triticum aestivum; design: key to Wheat plant response rating: 0 = no effect, 100 = complete control; conditions: scale 0 (no effect) to 100 (complete control); for Wheat plant response rating: postemergence, visual rating
Outline: (§2)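 Visual ratings, 0 (no effect) to 100 (complete control), made versus controls after 13–15 d greenhouse. Paddy plants treated at 2-leaf stage; postemergence plants at 1- to 4-leaf stage, 2–18 cm tall.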

[3] = system: giant foxtail; experiment: Test B pre-/postemergence herbicide test; type: in vivo, Setaria faberi
Outline: (§3)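 Response was scored visually 13 to 15 days after treatment against untreated greenhouse controls, 0 meaning no effect and 100 complete control. Formulations (solvent mixture plus surfactant) went onto soil after planting, onto foliage of 1- to 4-leaf plants, and onto 2-leaf plants in a flooded paddy set including rice and barnyardgrass.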

[4] = system: wild oat; experiment: Test B postemergence herbicide test; type: in vivo, Avena fatua; conditions: scale 0 (no effect) to 100 (complete control); for Oat, Wild plant response rating: postemergence, visual rating
Outline: as §2

[5] = system: velvetleaf; experiment: Test B pre-/postemergence herbicide test; type: in vivo, Abutilon theophrasti; conditions: for Velvetleaf plant response rating: postemergence, visual rating
Outline: as §3

[6] = system: blackgrass; experiment: Test B postemergence herbicide test; type: in vivo, Alopecurus myosuroides; conditions: scale 0 (no effect) to 100 (complete control); for Blackgrass plant response rating: postemergence, visual rating
Outline: as §2

[7] = system: barnyardgrass; experiment: Test B pre-/postemergence herbicide test; type: in vivo, Echinochloa crus-galli
Outline: (§4)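 Visual rating, 0 (no effect) to 100 (complete control), versus untreated controls after 13–15 d in greenhouse. Pre- and postemergence applications (postemergence plants 2–18 cm, 1–4 leaves); flooded paddy arm at 2-leaf stage. Compounds in non-phytotoxic solvent plus surfactant.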

[8] = system: small flower umbrella sedge; experiment: Test B flooded paddy test; type: in vivo, Cyperus difformis; conditions: 1000 g ai/ha, visual rating, scale 0 to 100 (0 no effect, 100 complete control), 13 to 15 days
Outline: as §2

[9] = system: rice; experiment: Test B pre-/postemergence herbicide test; type: in vivo, Oryza sativa; conditions: preemergence
Outline: as §3

[10] = system: large crabgrass; experiment: Test B pre-/postemergence herbicide test; type: in vivo, Digitaria sanguinalis
Outline: as §3

[11] = system: lambsquarters; experiment: Test B pre-/postemergence herbicide test; type: in vivo, Chenopodium album; conditions: for Lambsquarters plant response rating: postemergence, visual rating
Outline: as §3

[12] = system: barnyardgrass; experiment: Test B flooded paddy test; type: in vivo, Echinochloa crus-galli; conditions: 1000 g ai/ha, visual rating, scale 0 to 100 (0 no effect, 100 complete control), 13 to 15 days
Outline: as §2

[13] = system: Surinam grass; experiment: Test B pre-/postemergence herbicide test; type: in vivo, Urochloa decumbens; conditions: for Surinam Grass plant response rating: postemergence, visual rating
Outline: as §3

[14] = system: ducksalad; experiment: Test B flooded paddy test; type: in vivo, Heteranthera limosa; conditions: 1000 g ai/ha, visual rating, scale 0 to 100 (0 no effect, 100 complete control), 13 to 15 days
Outline: as §2

[15] = system: corn; experiment: Test B pre-/postemergence herbicide test; type: in vivo, Zea mays
Outline: as §3

[16] = system: rice; experiment: Test B flooded paddy test; type: in vivo, Oryza sativa; conditions: 1000 g ai/ha, visual rating, scale 0 to 100 (0 no effect, 100 complete control), 13 to 15 days
Outline: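 Postemergence plants were sprayed with formulated test chemicals at 2 to 18 cm height (1- to 4-leaf stage); paddy species were grown to the 2-leaf stage. After 13 to 15 days in a greenhouse, injury was rated visually against untreated controls on a 0–100 scale (0 = no effect, 100 = complete control).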

[17] = system: pigweed; experiment: Test B pre-/postemergence herbicide test; type: in vivo, Amaranthus retroflexus; conditions: for Pigweed plant response rating: postemergence, visual rating
Outline: as §3

[18] = system: morningglory; experiment: Test A pre-/postemergence herbicide test; type: in vivo, Ipomoea spp.
Outline: as §1

[19] = system: cocklebur; experiment: Test B pre-/postemergence herbicide test; type: in vivo, Xanthium strumarium
Outline: as §4

[20] = system: morningglory; experiment: Test B pre-/postemergence herbicide test; type: in vivo, Ipomoea coccinea; conditions: for Morningglory plant response rating: postemergence, visual rating
Outline: as §4

[21] = system: velvetleaf; experiment: Test A pre-/postemergence herbicide test; type: in vivo, Abutilon theophrasti
Outline: as §1

[22] = system: barnyardgrass; experiment: Test A pre-/postemergence herbicide test; type: in vivo, Echinochloa crus-galli
Outline: as §1

[23] = system: large crabgrass; experiment: Test A pre-/postemergence herbicide test; type: in vivo, Digitaria sanguinalis
Outline: as §1

[24] = system: redroot pigweed; experiment: Test A pre-/postemergence herbicide test; type: in vivo, Amaranthus retroflexus
Outline: as §1

[25] = Postemergence, 500 g ai/ha, 0 to 100 scale, 0 no effect, 100 complete control
[26] = Postemergence, 2000 g ai/ha, 0 to 100 scale, 0 no effect, 100 complete control
[27] = Preemergence, 500 g ai/ha, visual rating, 0 to 100 scale (0 no effect, 100 complete control)
[28] = Preemergence, 2000 g ai/ha, 0 to 100 scale, 0 no effect, 100 complete control
[29] = Postemergence, 500 g ai/ha, visual rating after 13 to 15 days
[30] = Postemergence, 500 g ai/ha, visual rating after 13 to 15 days, scale 0 (no effect) to 100 (complete control)
[31] = Preemergence, 500 g ai/ha, scale 0 to 100
[32] = postemergence, 125 g ai/ha, visual rating, scale 0 (no effect) to 100 (complete control)
[33] = preemergence, 125 g ai/ha, 0 to 100 scale, 0 is no effect, 100 is complete control
[34] = 125 g ai/ha, scale 0 (no effect) to 100 (complete control)
[35] = Postemergence, 250 g ai/ha, 0 to 100 scale, 0 no effect, 100 complete control
[36] = Postemergence, 1000 g ai/ha, 0 to 100 scale, 0 no effect, 100 complete control
[37] = Preemergence, 1000 g ai/ha, visual rating, 0 to 100 scale (0 no effect, 100 complete control)
[38] = preemergence, 250 g ai/ha, visual injury, 0 to 100 scale (0 no effect, 100 complete control)
[39] = 500 g ai/ha, visual rating 0-100, 0 no effect, 100 complete control, preemergence
[40] = postemergence, 500 g ai/ha, visual rating, scale 0 (no effect) to 100 (complete control)
[41] = 500 g ai/ha, scale 0 (no effect) to 100 (complete control)

CCOC(=O)c1ccc(F)c(NC(=O)c2cc(C(C)(C)C)nn2CC)c1 [Compound 70]
45: Crabgrass, Large plant response rating [23, 28]
80: Plant response rating, Lambsquarters [11, 30] | Lambsquarters plant response rating [11, 34]
90: Plant response rating, Foxtail, Giant [3, 33]
75: Plant response rating, Pigweed [24, 26]
50: Barnyardgrass plant response rating [7, 31] | Plant response rating, Pigweed [17, 30] | Cocklebur plant response rating [19, 32]
25: Plant response rating, Morningglory [18, 25] | Plant response rating, Barnyardgrass [22, 25] | Plant response rating, Crabgrass, Large [23, 25]
30: Plant response rating, Foxtail, Giant [3, 30] | Plant response rating, Velvetleaf [5, 33] | Sedge, Umbrella plant response rating [8] | Pigweed plant response rating [17, 34] | Plant response rating, Pigweed [17, 33] | Plant response rating, Morningglory [18, 26] | Plant response rating, Morningglory [20, 30] | Plant response rating, Velvetleaf [21, 26] | Plant response rating, Barnyardgrass [22, 26] | Plant response rating, Crabgrass, Large [23, 26]
40: Foxtail, Giant plant response rating [1, 27] | Plant response rating, Barnyardgrass [7, 33] | Plant response rating, Surinam Grass [13, 33]
0: Plant response rating, Rice ([9]; 125 g ai/ha, 0 to 100 scale, 0 is no effect, 100 is complete control) | Ducksalad plant response rating [14] | Cocklebur plant response rating [19, 31] | Plant response rating, Cocklebur [19, 33] | Pigweed plant response rating [24, 27]
20: Plant response rating, Foxtail, Giant [1, 25] | Plant response rating, Foxtail, Giant [1, 26] | Plant response rating, Wheat [2, 29] | Foxtail, Giant plant response rating [3, 32] | Plant response rating, Oat, Wild [4, 29] | Oat, Wild plant response rating ([4]; 125 g ai/ha) | Velvetleaf plant response rating [5, 34] | Plant response rating, Blackgrass [6, 29] | Plant response rating, Barnyardgrass [7, 30] | Barnyardgrass plant response rating [7, 32] | Plant response rating, Crabgrass, Large [10, 30] | Crabgrass, Large plant response rating [10, 32] | Plant response rating, Surinam Grass [13, 30] | Surinam Grass plant response rating [13, 34] | Plant response rating, Corn [15, 30] | Corn plant response rating [15, 31] | Corn plant response rating [15, 32] | Morningglory plant response rating [18, 27] | Morningglory plant response rating [20, 34] | Velvetleaf plant response rating ([21]; Preemergence, 2000 g ai/ha, visual rating, 0 to 100 scale (0 no effect, 100 complete control)) | Barnyardgrass plant response rating [22, 27] | Barnyardgrass plant response rating [22, 28]
35: Crabgrass, Large plant response rating [23, 27]
100: Foxtail, Giant plant response rating [3, 31] | Crabgrass, Large plant response rating [10, 31] | Plant response rating, Crabgrass, Large [10, 33] | Plant response rating, Cocklebur [19, 30]
5: Pigweed plant response rating [24, 28]
55: Foxtail, Giant plant response rating [1, 28]
10: Wheat plant response rating ([2]; 125 g ai/ha) | Blackgrass plant response rating ([6]; 125 g ai/ha) | Barnyardgrass plant response rating [12] | Plant response rating, Corn [15, 33] | Rice plant response rating [16] | Morningglory plant response rating [18, 28] | Plant response rating, Morningglory [20, 33] | Velvetleaf plant response rating [21, 27]
60: Plant response rating, Velvetleaf [5, 30] | Plant response rating, Pigweed [24, 25]

CCn1nc(C(C)(C)C)cc1C(=O)Nc1cccc([S+]([O-])C(F)(F)F)c1 (stereo not shown) [Compound 135]
55: Pigweed plant response rating [24, 38]
5: Velvetleaf plant response rating [21, 38]
70: Sedge, Umbrella plant response rating [8] | Lambsquarters plant response rating [11, 34]
20: Foxtail, Giant plant response rating [1, 35] | Wheat plant response rating ([2]; 125 g ai/ha) | Wheat plant response rating ([2]; 500 g ai/ha) | Plant response rating, Foxtail, Giant [3, 39] | Oat, Wild plant response rating ([4]; 125 g ai/ha) | Oat, Wild plant response rating ([4]; 500 g ai/ha) | Velvetleaf plant response rating [5, 34] | Barnyardgrass plant response rating [7, 32] | Crabgrass, Large plant response rating [10, 32] | Corn plant response rating [15, 32] | Crabgrass, Large plant response rating [23, 35]
85: Plant response rating, Pigweed [24, 36] | Pigweed plant response rating [24, 37]
40: Foxtail, Giant plant response rating [3, 40] | Barnyardgrass plant response rating [7, 40] | Plant response rating, Barnyardgrass [7, 33] | Surinam Grass plant response rating [13, 41] | Cocklebur plant response rating [19, 32] | Crabgrass, Large plant response rating [23, 38]
50: Foxtail, Giant plant response rating [1, 37] | Plant response rating, Velvetleaf [5, 39] | Plant response rating, Barnyardgrass [7, 39] | Plant response rating, Crabgrass, Large [10, 33] | Morningglory plant response rating [20, 41] | Velvetleaf plant response rating [21, 37] | Plant response rating, Barnyardgrass [22, 36]
25: Morningglory plant response rating [18, 37] | Plant response rating, Velvetleaf [21, 36]
0: Blackgrass plant response rating ([6]; 125 g ai/ha) | Blackgrass plant response rating ([6]; 500 g ai/ha) | Plant response rating, Corn [15, 39] | Plant response rating, Corn [15, 33] | Morningglory plant response rating [18, 38] | Plant response rating, Cocklebur [19, 39] | Plant response rating, Cocklebur [19, 33]
100: Plant response rating, Lambsquarters [11, 39] | Plant response rating, Pigweed [17, 39]
90: Plant response rating, Crabgrass, Large [10, 39] | Pigweed plant response rating [17, 41] | Cocklebur plant response rating [19, 40] | Crabgrass, Large plant response rating [23, 37]
80: Lambsquarters plant response rating [11, 41] | Ducksalad plant response rating [14] | Pigweed plant response rating [17, 34] | Pigweed plant response rating [24, 35]
10: Foxtail, Giant plant response rating [1, 38] | Plant response rating, Foxtail, Giant [3, 33] | Plant response rating, Surinam Grass [13, 33] | Morningglory plant response rating [18, 35] | Plant response rating, Morningglory [18, 36] | Plant response rating, Morningglory [20, 33]
15: Velvetleaf plant response rating [21, 35]
35: Barnyardgrass plant response rating [22, 38]
65: Barnyardgrass plant response rating [22, 37]
30: Plant response rating, Foxtail, Giant [1, 36] | Foxtail, Giant plant response rating [3, 32] | Velvetleaf plant response rating [5, 41] | Plant response rating, Velvetleaf [5, 33] | Plant response rating, Rice ([9]; 500 g ai/ha, visual rating 0-100, 0 no effect, 100 complete control) | Crabgrass, Large plant response rating [10, 40] | Plant response rating, Lambsquarters [11, 33] | Plant response rating, Surinam Grass [13, 39] | Surinam Grass plant response rating [13, 34] | Corn plant response rating [15, 40] | Morningglory plant response rating [20, 34] | Barnyardgrass plant response rating [22, 35] | Plant response rating, Crabgrass, Large [23, 36]
60: Barnyardgrass plant response rating [12] | Rice plant response rating [16] | Plant response rating, Pigweed [17, 33]
